In patent US9951055B2, “Thiazole-based inhibitors of scavenger receptor BI” (THE BROAD INSTITUTE, INC., priority 2012, dated 2018):

Target: T1, murine SR-BI (Mus musculus, UniProt Q61009)
T1 construct: expressed in transfected cells; host or cells: ldlA[mSR-BI]; (CHO ldlA7 derivative lacking the LDL receptor)
T1 sequence (Q61009 1-509): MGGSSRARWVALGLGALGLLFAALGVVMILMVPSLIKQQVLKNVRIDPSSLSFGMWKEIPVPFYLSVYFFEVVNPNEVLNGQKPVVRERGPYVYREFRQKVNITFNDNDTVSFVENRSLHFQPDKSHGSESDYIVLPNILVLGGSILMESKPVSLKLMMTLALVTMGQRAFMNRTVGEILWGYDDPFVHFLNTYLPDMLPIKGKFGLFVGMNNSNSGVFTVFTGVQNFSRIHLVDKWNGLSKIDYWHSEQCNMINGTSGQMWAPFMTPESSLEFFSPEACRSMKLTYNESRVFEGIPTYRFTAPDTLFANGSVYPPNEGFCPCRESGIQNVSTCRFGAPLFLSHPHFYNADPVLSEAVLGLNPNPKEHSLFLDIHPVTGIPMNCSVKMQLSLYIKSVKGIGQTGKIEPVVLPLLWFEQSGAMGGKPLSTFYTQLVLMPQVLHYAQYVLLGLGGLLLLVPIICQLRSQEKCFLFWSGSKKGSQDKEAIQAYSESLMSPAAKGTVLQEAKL
Assay: Compound reversibility, cellular uptake of DiI from DiI-HDL
Type: cell-based
Details: 1 hr preincubation, then 0 or 4 hr incubation in the absence of compound; read-out: IC50, reversibility test (DiI uptake)
Procedure: Compound reversibility was tested by measuring the cellular uptake of DiI from DiI-HDL (all incubations at 37° C.) in ldlA7 cells that were stably transfected with cDNA encoding murine SR-BI. On day 0, 50,000 cells were plated in 96-well dishes per well (Costar, black with clear, flat bottom) in Ham's F12 medium containing 2 mM L-glutamine, 50 units/mL penicillin per 50 μg/mL streptomycin (medium A) supplemented with 5% (vol/vol) FBS and 0.25 mg/mL G418 (medium B). On day 2, the cells were washed twice with prewarmed (37° C.) medium A. The cells were then preincubated with the tested compounds in 200 μL per well of medium A plus 0.5% (wt/vol) BSA plus 0.5% (vol/vol) DMSO (medium C) for 1 hr. The 1 hr preincubation was followed by either a 0 or 4 hr incubation in medium C in the absence of compound. The cells were then incubated in medium C (200 μL per well) containing 10 μg protein per mL of DiI-HDL at 37° C. for 2 h to measure DiI uptake. […] Then 50 μL PBS was added and fluorescence measurements made using a Molecular Devices SpectraMax fluorescence plate reader (excitation at 515 nm, emission at 575 nm, bottom read mode). DiI uptake was also measured in the presence of a 40-fold excess of unlabeled HDL to determine nonspecific (SR-BI-independent) uptake.

**Q.** How did the IC50 turn out when `COCC(=O)N1CCc2cc(-c3csc(NC(=O)c4cc(OC)cc(OC)c4)n3)ccc21` [Compound 137, 3,5-Dimethoxy-N-(4-(1-(2-methoxyacetyl)indolin-5-yl)thiazol-2-yl)benzamide] was run?
**A.** The IC50 was 0.315 µM.
